In general, IC50 refers to the midpoint of a concentration-inhibition curve. A lower IC50 goes with higher potency.

Holding throughout (type): biochemical
Test [1] deals with T1, PTP1B (Homo sapiens, UniProt P18031).
T1 construct: made in house; host or cells: Escherichia coli
T1 sequence (P18031 1-435): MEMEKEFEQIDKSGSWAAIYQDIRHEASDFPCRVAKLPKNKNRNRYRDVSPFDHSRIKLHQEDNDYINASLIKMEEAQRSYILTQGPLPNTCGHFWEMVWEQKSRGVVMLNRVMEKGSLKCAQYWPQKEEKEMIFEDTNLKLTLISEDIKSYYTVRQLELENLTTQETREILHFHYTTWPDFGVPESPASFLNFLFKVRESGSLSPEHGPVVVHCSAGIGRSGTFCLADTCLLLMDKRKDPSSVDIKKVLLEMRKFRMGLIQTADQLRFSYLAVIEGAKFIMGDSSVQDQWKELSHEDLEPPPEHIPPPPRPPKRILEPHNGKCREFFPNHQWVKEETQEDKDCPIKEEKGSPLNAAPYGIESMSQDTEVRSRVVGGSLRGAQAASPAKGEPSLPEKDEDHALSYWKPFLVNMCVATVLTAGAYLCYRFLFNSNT
The experiment in a line: PTP inhibition assay (pNPP hydrolysis), PTP1B. On the procedure:
(§1) PTP Inhibition Assays. Stock solutions of inhibitors were prepared in dimethyl sulfoxide (DMSO) and their concentrations were calculated from the known inhibitor masses and solvent volumes. A typical reaction (total volume 1 mL) contained 50 mM HEPES (pH 7.4), 1 mM EDTA, 1 mM tris(carboxyethyl)phosphine (TCEP), 50 mM NaCl, 5% (v/v) DMSO, 0.1-0.2 μM PTP, and 0-2000 μM inhibitor. After incubation of the enzyme with the inhibitor for 1 h at room temperature, the reaction was initiated by the addition of 1.0 mM p-nitrophenyl phosphate (pNPP). The reaction progress was monitored at 405 nm on a Perkin-Elmer UV-Vis spectrophotometer. The IC50 values were determined by plotting the remaining activity as a function of inhibitor concentration, and the K1* values were obtained by fitting the data to the Michaelis-Menten equation. To determine the K1 value, the reaction was initiated by addition of enzyme (0.2 μM) into the above reaction mixture, which also contained 1.0 mM pNPP. The reaction was monitored continuously on the UV-Vis spectrophotometer and the initial reaction rates (<15 s) were fitted to the Michaelis-Menten equation.
To determine the rate constant κ6, the enzyme (1.0 μM) was incubated with 50-100 μM inhibitor in 100 μL of the above reaction buffer for 3 h at room temperature. The mixture was rapidly diluted into 900 μL of the same reaction buffer containing 1.0 mM pNPP (without inhibitor). Reactivation of PTP activity was monitored at 405 nm and the progress curves were fit to the equation
where νs is the final steady-state velocity. The rate constant κ5 was calculated using the equation
Inactivation of Inhibitor Cinn-GEE by Cysteamine. Cinn-GEE (1 mM) was incubated with 100 mM cysteamine hydrochloride (which had been neutralized by the addition of 1.0 equivalent of NaOH) in 100 μL of a 97:3 DMSO/H2O mixture for 24 h. The treated inhibitor was then used in inhibition assays as described above. As a control, inhibition assay also performed with the same amount of cysteamine hydrochloride/NaOH solution.

The target of test [2] is T2, SHP-1 (Homo sapiens, UniProt P29350).
T2 construct: The catalytic domain of SHP-1, SHP-1(ΔSH2), was purified from a recombinant Escherichia coli strain; made in house; host or cells: Escherichia coli
The experiment in a line: PTP inhibition assay (pNPP hydrolysis), catalytic domain of SHP-1, SHP-1(ΔSH2). How it is done: as §1

In test [3] the target is T3, VHR (Homo sapiens, UniProt P51452).
T3 construct: made in house; host or cells: Escherichia coli
The test can be described thus: PTP inhibition assay (pNPP hydrolysis), dual-specificity phosphatase VHR. On the procedure: as §1

[4] abbreviates: 1 h preincubation with inhibitor, 1.0 mM pNPP, pH 7.4.
The mark [5] stands for this setting: slow-binding inhibition, 1 h preincubation, 1.0 mM pNPP, read-out: KI* (overall equilibrium inhibition constant).

Values joined by “and” are separate entries in the source; they are usually repeats but may differ in a detail not shown here. Identical values can stand only once. Like-named read-outs stand apart in the source and are kept apart here.

T2 sequence (P29350 214-595): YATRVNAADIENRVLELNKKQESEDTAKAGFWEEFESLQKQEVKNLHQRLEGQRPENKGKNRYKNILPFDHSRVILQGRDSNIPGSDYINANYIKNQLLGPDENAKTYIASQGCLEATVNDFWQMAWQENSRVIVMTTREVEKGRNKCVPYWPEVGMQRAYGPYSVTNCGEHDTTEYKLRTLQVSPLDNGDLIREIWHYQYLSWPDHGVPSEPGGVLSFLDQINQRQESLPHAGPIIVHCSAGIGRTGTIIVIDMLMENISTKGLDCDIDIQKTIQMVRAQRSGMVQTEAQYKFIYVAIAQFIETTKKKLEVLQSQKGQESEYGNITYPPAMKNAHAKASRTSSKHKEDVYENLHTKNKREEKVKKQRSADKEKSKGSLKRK
T3 sequence (P51452 whole entry, species assumed): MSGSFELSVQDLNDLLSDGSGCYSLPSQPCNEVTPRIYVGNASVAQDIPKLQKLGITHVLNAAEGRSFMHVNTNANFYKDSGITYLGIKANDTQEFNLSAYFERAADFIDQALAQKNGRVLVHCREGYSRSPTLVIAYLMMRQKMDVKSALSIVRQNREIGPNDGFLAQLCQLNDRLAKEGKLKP

On to `O=Cc1ccccc1` [Compound 1, Benzaldehyde, reference compound], for which the “Inhibitory activity (in words)” value in test [1], in test [2] and in test [3] was “least active” in each case.

Turning to `O=CC=Cc1ccc(C(=O)O)cc1` [Compound 3, 4-(3-Oxo-1-propenyl)benzoic acid], the results for the IC50 in test [1] (setting [4]), in test [2] (setting [4]) and in test [3] (setting [4]) were 970 µM, 230 µM and > 2000 µM, respectively. In addition, the “Inhibition against VHR” value in test [3] (up to 2 mM) was “no significant inhibition”.

`NC(=O)C(CCC(=O)O)NC(=O)C(CCC(=O)O)NC(=O)CNC(=O)c1ccc(C=CC=O)cc1` (stereo not drawn) [Compound 5, N-[4-(3-Oxo-1-propenyl)benzoyl]-Gly-Glu-Glu-NH2]: the “κ6, rate for reactivation of PTP1B” value in test [1] (E·I* complex preformed 3 h, diluted 10-fold into 1.0 mM pNPP) came out at 0.56 min⁻¹. Moreover, the “κ5, rate for conversion of noncovalent E·I complex to covalent complex” value in test [1] (calculated from K1*=K1κ6/(κ5+κ6)) was 56 min⁻¹. Also, the Ki is 550 µM in test [1] (initial reaction rates (<15 s), reaction initiated by enzyme, read-out: K1, equilibrium inhibition constant for the initial complex E·I); 5.4 µM and 5.42 µM in test [1] (setting [5]); 10.7 µM in test [2] (setting [5]); 288 µM in test [3] (setting [5]). The “Inhibitory activity against PTP1B after treatment of inhibitor with cysteamine” value in test [1] (prior treatment with excess cysteamine) is on record as “abolished”.

The record behind these values is patent publication US20040009956A1, “Inhibition of protein tyrosine phosphatases and SH2 domains by a neutral phosphotyrosine mimetic” (priority 2002, published 2004).
